# Assays:
# [1] = target: T1, KPR (ketopantoate reductase) (Staphylococcus aureus, UniProt A0A0J9X283); test: FRET titration, Trp167 to bound NADPH; type: binding
# T1 sequence (A0A0J9X283 1-286): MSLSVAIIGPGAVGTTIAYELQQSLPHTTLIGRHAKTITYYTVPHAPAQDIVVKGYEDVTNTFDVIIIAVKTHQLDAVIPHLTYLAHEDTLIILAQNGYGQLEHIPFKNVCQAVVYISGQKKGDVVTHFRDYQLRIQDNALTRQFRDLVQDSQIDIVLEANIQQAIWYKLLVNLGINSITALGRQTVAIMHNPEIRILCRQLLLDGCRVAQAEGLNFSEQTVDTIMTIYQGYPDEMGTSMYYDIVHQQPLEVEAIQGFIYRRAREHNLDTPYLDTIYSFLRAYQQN
# [2] = target: Staphylococcus aureus ketopantoate reductase (Staphylococcus aureus); test: AUC
stoichiometry N [2],Compound,Kd [1] [µM]
–,NC(=O)C1=CN([C@@H]2O[C@H](COP(=O)(O)OP(=O)(O)OC[C@H]3O[C@@H](n4cnc5c(N)ncnc54)[C@H](OP(=O)(O)O)[C@@H]3O)[C@@H](O)[C@H]2O)C=CC1 [NADPH],0.058 ± 0.002
2,Staphylococcus aureus ketopantoate reductase (enzyme),–

# Source: article PMC4668926 (Biochemistry, 2015)
